Experiment [1] deals with T1, Integrin alpha-4/beta-1 (Homo sapiens, UniProt P05556+P13612). Kind of experiment: Inhibition of alpha4-beta1 binding to VCAM-1 in ELISA. It counts as protein-complex assay. For orientation: ELISA stands for enzyme-linked immunosorbent assay.
Experiment [2] has as its target T1, Integrin alpha-4/beta-1. The experiment in a line: Inhibition of fluorescently labeled alpha4-beta1 positive Ramos cells binding to immobilized VCAM-1. It is filed as cell-based.
The target in experiment [3] is T1, Integrin alpha-4/beta-1. Kind of experiment: Inhibition of purified alpha-4 beta-1 binding to VCAM-1 was determined in an ELISA assay. It is filed as protein-complex assay.

Experimental findings from ChEMBL document CHEMBL1130186, “Potent alpha 4 beta 1 peptide antagonists as potential anti-inflammatory agents” (J Med Chem, 1997) are described below.

Where a SMILES comes first, the peptide text is derived from it. Bridges are numbered along the chain shown (N, C = ends). [ ]: non-standard residue; d: D form. The star is where a group is joined. Phenylacetyl(4-OMe) = COc1ccc(CC(=O)*)cc1; Fmoc = O=C(OCC1c2ccccc2-c2ccccc21)*; X1 = O=C(C(Cc1ccc(O)cc1)c1ccccc1)*; 1Naphthoyl = O=C(c1cccc2ccccc12)*; 2Naphthoyl = O=C(c1ccc2ccccc2c1)*; Cha = N[C@@H](CC1CCCCC1)C(=O)O; Phg = N[C@H](C(=O)O)c1ccccc1; X2 = O=C(c1cccc2cc(O)ccc12)*; 4Amb = NCc1ccc(C(=O)O)cc1; Pip = O=C(O)[C@@H]1CCCCN1; 3Abz = Nc1cccc(C(=O)O)c1; 4Abz = Nc1ccc(C(=O)O)cc1; Bz = O=C(c1ccccc1)*; βAla = NCCC(=O)O

T1 sequence (P05556 whole entry): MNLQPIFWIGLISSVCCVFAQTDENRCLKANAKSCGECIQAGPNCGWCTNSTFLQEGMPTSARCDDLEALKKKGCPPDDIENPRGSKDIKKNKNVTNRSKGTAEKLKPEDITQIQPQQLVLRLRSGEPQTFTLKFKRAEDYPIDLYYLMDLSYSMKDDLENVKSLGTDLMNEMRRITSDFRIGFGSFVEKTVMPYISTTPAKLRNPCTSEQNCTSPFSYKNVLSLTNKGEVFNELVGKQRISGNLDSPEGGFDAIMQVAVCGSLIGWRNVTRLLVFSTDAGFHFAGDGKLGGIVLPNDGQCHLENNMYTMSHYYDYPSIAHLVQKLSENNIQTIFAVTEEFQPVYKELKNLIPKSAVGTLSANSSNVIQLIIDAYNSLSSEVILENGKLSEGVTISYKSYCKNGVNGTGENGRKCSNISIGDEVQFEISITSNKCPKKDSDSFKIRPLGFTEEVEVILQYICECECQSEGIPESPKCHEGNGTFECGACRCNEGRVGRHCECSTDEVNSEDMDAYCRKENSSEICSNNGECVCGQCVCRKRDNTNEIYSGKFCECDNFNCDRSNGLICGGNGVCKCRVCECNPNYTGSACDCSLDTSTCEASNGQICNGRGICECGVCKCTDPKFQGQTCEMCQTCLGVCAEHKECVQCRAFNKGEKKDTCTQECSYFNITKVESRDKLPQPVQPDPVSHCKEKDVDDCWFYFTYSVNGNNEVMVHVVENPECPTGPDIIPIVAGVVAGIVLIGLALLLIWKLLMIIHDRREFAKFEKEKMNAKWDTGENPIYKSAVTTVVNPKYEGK
T1 sequence (P13612 whole entry): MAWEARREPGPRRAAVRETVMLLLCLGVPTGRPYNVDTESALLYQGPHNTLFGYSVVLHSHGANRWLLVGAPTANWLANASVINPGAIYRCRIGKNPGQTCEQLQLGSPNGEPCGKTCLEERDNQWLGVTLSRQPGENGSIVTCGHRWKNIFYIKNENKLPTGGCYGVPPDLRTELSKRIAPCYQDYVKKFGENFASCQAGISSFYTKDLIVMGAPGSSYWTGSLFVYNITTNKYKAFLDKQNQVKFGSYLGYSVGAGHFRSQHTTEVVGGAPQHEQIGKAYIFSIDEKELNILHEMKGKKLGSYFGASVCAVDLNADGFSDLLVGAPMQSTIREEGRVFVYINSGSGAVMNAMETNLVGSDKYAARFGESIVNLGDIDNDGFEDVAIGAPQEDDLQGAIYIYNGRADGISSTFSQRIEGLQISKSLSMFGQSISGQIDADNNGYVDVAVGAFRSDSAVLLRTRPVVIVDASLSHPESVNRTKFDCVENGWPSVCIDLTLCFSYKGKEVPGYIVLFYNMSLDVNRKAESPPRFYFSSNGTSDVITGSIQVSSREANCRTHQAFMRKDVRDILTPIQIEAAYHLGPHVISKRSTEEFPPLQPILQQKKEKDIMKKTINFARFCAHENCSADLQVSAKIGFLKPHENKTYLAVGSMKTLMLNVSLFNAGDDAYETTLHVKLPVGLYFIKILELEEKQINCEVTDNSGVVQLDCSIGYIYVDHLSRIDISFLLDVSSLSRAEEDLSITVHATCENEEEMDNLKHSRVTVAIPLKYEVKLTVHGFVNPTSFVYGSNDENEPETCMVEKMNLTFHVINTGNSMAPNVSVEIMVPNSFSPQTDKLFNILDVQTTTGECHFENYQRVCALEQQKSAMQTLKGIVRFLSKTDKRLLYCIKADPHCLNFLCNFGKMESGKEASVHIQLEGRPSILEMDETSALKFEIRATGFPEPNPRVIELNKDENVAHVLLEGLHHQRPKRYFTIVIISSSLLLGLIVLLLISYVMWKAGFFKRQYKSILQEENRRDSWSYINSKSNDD

By IC50 is commonly meant the concentration needed to halve the response being measured. Low readings indicate greater potency in that assay, high ones weaker potency in that assay. For `N[C@@H](Cc1ccc(O)cc1)C(=O)N[C@H]1CSSC[C@@H](C(=O)O)NC(=O)c2cccc(c2)NC1=O` (H-YC[3Abz]C-OH; disulfide 2-4), the half-maximal inhibitory concentration (IC50) at Integrin alpha-4/beta-1 [1] came out at 0.008 µM. That is a single-digit nanomolar value. Turning to `N[C@@H](Cc1ccccc1)C(=O)N[C@H]1CSSC[C@@H](C(=O)O)NC(=O)[C@@H]2CCCN2C(=O)[C@H](CO)NC1=O` (H-FCSPC-OH; disulfide 2-5), the IC50 at Integrin alpha-4/beta-1 [2] came out at 15 µM; on Integrin alpha-4/beta-1 [3], 1.5 µM.

As for `N[C@@H](Cc1ccc(O)cc1)C(=O)N[C@H]1CSSC[C@@H](C(=O)O)NC(=O)CCNC1=O` (H-YC[βAla]C-OH; disulfide 2-4), the IC50 on Integrin alpha-4/beta-1 [2] came out at 210 µM; at Integrin alpha-4/beta-1 [3], 4.2 µM. Turning to `O=C(N[C@H]1CSSC[C@@H](C(=O)O)NC(=O)[C@@H]2CCCN2C(=O)[C@H](CO)NC1=O)c1cccc2cc(O)ccc12` (X2-CSPC-OH; disulfide 1-4), the IC50 on Integrin alpha-4/beta-1 [2] stood at 40 µM; at Integrin alpha-4/beta-1 [3] it was 1.1 µM. Taken in the same sequence, the figures for `C[C@@H]1NC(=O)[C@@H](NC(=O)[C@@H](N)Cc2ccc(O)cc2)CSSC[C@@H](C(=O)O)NC(=O)[C@H](CC2CCCCC2)NC1=O` (H-YCA[Cha]C-OH; disulfide 2-5) were 25 µM and 0.14 µM. The matching figures for `N=C(N)NCCC[C@H](NC(=O)OCC1c2ccccc2-c2ccccc21)C(=O)N[C@H]1CSSC[C@@H](C(=O)O)NC(=O)[C@@H]2CCCN2C(=O)[C@H](CC(=O)O)NC1=O` (Fmoc-RCDPC-OH; disulfide 2-5): 15 µM and 0.13 µM.

As for `CC(C)C[C@H](N)C(=O)N[C@@H](CCCNC(=N)N)C(=O)N[C@H]1CSSC[C@@H](C(=O)O)NC(=O)[C@@H]2CCCN2C(=O)[C@H](CC(=O)O)NC1=O` (H-LRCDPC-OH; disulfide 3-6), the IC50 on Integrin alpha-4/beta-1 [2] worked out at 250 µM; on Integrin alpha-4/beta-1 [3] it was 21 µM.

Consider `CC[C@H](C)[C@@H]1NC(=O)[C@H](C)NC(=O)[C@@H](NC(=O)[C@@H](N)Cc2ccc(O)cc2)CSSC[C@@H](C(=O)O)NC1=O` (H-YCAIC-OH; disulfide 2-5), for which the IC50 at Integrin alpha-4/beta-1 [2] stood at 0.94 µM; on Integrin alpha-4/beta-1 [3], 0.023 µM.

As to `C[C@@H]1NC(=O)[C@@H](NC(=O)[C@@H](N)Cc2ccc(O)cc2)CSSC[C@@H](C(=O)O)NC1=O` (H-YCAC-OH; disulfide 2-4), the IC50 on Integrin alpha-4/beta-1 [2] was 350 µM; at Integrin alpha-4/beta-1 [3], 9.4 µM. `NC(N)=NCCC[C@H](N)C(=O)N[C@H]1CSSC[C@@H](C(=O)O)NC(=O)[C@@H]2CCCN2C(=O)[C@H](CC(=O)O)NC1=O` (H-RCDPC-OH; disulfide 2-5): the IC50 at Integrin alpha-4/beta-1 [2] is 80 µM; at Integrin alpha-4/beta-1 [1], 3.7 µM. With `CC(=O)N[C@@H](CCCN=C(N)N)C(=O)N[C@H]1CSSC[C@@H](C(=O)O)NC(=O)[C@@H]2CCCN2C(=O)[C@H](CC(=O)O)NC1=O` (Ac-RCDPC-OH; disulfide 2-5), the IC50 on Integrin alpha-4/beta-1 [2] amounted to 40 µM; at Integrin alpha-4/beta-1 [3], 1.3 µM.

For the molecule `N[C@@H](Cc1ccc(O)cc1)C(=O)N[C@H]1CSSC[C@@H](C(=O)O)NC(=O)CNC1=O` (H-YCGC-OH; disulfide 2-4), the IC50 on Integrin alpha-4/beta-1 [2] is 250 µM; at Integrin alpha-4/beta-1 [3], 5.8 µM. Taken in the same sequence, the figures for `CC(=O)N[C@@H](Cc1ccc(O)cc1)C(=O)N[C@H]1CSSC[C@@H](C(=O)O)NC(=O)[C@@H]2CCCN2C(=O)[C@H](C)NC1=O` (Ac-YCAPC-OH; disulfide 2-5) were 0.31 µM and 0.004 µM. Taken in the same sequence, the figures for `CC1CNC(=O)[C@@H](NC(=O)[C@@H](N)Cc2ccc(O)cc2)CSSC[C@@H](C(=O)O)NC1=O` (stereo partly drawn) were 2.7 µM and 0.047 µM. Taken in the same sequence, the figures for `N[C@@H](Cc1ccc(O)cc1)C(=O)N[C@H]1CSSC[C@@H](C(=O)O)NC(=O)c2ccc(cc2)NC1=O` (H-YC[4Abz]C-OH; disulfide 2-4) were 4.2 µM and 0.16 µM.

Consider `N[C@@H](Cc1ccc(O)cc1)C(=O)N[C@H]1CSSC[C@@H](C(=O)O)NC(=O)c2ccc(cc2)CNC1=O` (H-YC[4Amb]C-OH; disulfide 2-4), for which the half-maximal inhibitory concentration (IC50) amounted to 15 µM on Integrin alpha-4/beta-1 [2] and 0.42 µM at Integrin alpha-4/beta-1 [3]. The matching figures for `O=C(N[C@H]1CSSC[C@@H](C(=O)O)NC(=O)[C@@H]2CCCN2C(=O)[C@H](CO)NC1=O)c1cccc2ccccc12` (1Naphthoyl-CSPC-OH; disulfide 1-4): 6.3 µM and 0.097 µM. The matching figures for `N=C(N)NCCC[C@H](NC(=O)[C@@H](N)Cc1ccc(O)cc1)C(=O)N[C@H]1CSSC[C@@H](C(=O)O)NC(=O)[C@@H]2CCCN2C(=O)[C@H](CCC(N)=O)NC1=O` (H-YRCQPC-OH; disulfide 3-6): 9 µM and 0.05 µM.

Regarding `O=C(N[C@H]1CSSC[C@@H](C(=O)O)NC(=O)[C@@H]2CCCN2C(=O)[C@H](CO)NC1=O)c1ccccc1` (Bz-CSPC-OH; disulfide 1-4), the IC50 on Integrin alpha-4/beta-1 [2] was found to be 1.9 µM; on Integrin alpha-4/beta-1 [3], 0.134 µM.

For `O=C(N[C@H]1CSSC[C@@H](C(=O)O)NC(=O)[C@@H]2CCCN2C(=O)[C@H](CO)NC1=O)C(Cc1ccc(O)cc1)c1ccccc1` (stereo partly drawn) (X1-CSPC-OH; disulfide 1-4), the 50% inhibitory concentration (IC50) on Integrin alpha-4/beta-1 [2] was 2 µM; on Integrin alpha-4/beta-1 [3], 0.013 µM.

For the molecule `O=C(N[C@H]1CSSC[C@@H](C(=O)O)NC(=O)[C@@H]2CCCN2C(=O)[C@H](CO)NC1=O)c1ccc2ccccc2c1` (2Naphthoyl-CSPC-OH; disulfide 1-4), the IC50 was 3.6 µM at Integrin alpha-4/beta-1 [2] and 0.054 µM on Integrin alpha-4/beta-1 [3]. Taken in the same sequence, the figures for `NCCCC[C@H](NC(=O)[C@@H](N)Cc1ccc(O)cc1)C(=O)N[C@H]1CSSC[C@@H](C(=O)O)NC(=O)[C@@H]2CCCN2C(=O)[C@H](CC(=O)O)NC1=O` (H-YKCDPC-OH; disulfide 3-6) were 5 µM and 0.15 µM. With `COc1ccc(CC(=O)N[C@H]2CSSC[C@@H](C(=O)O)NC(=O)[C@@H]3CCCN3C(=O)[C@H](CO)NC2=O)cc1` ({Phenylacetyl(4-OMe)}-CSPC-OH; disulfide 1-4), the 50% inhibitory concentration (IC50) is 3 µM on Integrin alpha-4/beta-1 [2] and 0.25 µM on Integrin alpha-4/beta-1 [3]. Taken in the same sequence, the figures for `CC(=O)N[C@@H](Cc1ccc(O)cc1)C(=O)N[C@H]1CSSC[C@@H](C(=O)O)NC(=O)[C@H](c2ccccc2)NC(=O)[C@H](C)NC1=O` (Ac-YCA[Phg]C-OH; disulfide 2-5) were 33 µM and 0.076 µM. Taken in the same sequence, the figures for `CC(=O)N[C@@H](Cc1ccc(O)cc1)C(=O)N[C@H]1CSSC[C@@H](C(=O)O)NC(=O)[C@@H]2CCCCN2C(=O)[C@H](C)NC1=O` (Ac-YCA[Pip]C-OH; disulfide 2-5) were 0.02 µM and 0.001 µM. Taken in the same sequence, the figures for `N=C(N)NCCC[C@H](NC(=O)[C@@H](N)Cc1ccc(O)cc1)C(=O)N[C@H]1CSSC[C@@H](C(=O)O)NC(=O)[C@@H]2CCCN2C(=O)[C@H](CC(N)=O)NC1=O` (H-YRCNPC-OH; disulfide 3-6) were 7 µM and 0.04 µM. With `N=C(N)NCCC[C@H](NC(=O)[C@@H](N)Cc1ccc(O)cc1)C(=O)N[C@H]1CSSC[C@@H](C(=O)O)NC(=O)[C@@H]2CCCN2C(=O)[C@H](CCC(=O)O)NC1=O` (H-YRCEPC-OH; disulfide 3-6), the 50% inhibitory concentration (IC50) stood at 30 µM at Integrin alpha-4/beta-1 [2] and 0.09 µM on Integrin alpha-4/beta-1 [3].
